Test results reported in patent US20250368638A1, “BICYCLIC INHIBITORS OF NICOTINAMIDE […], COMPOSITIONS AND USES THEREOF” (President and Fellows of Harvard College, priority 2021, published 2025).

Assays:
[1] = Metabolic stability in pooled male mouse liver microsomes
Procedure: A master solution was prepared according to the following table.
40 μL of 10 mM NADPH solution was added to each well. The final concentrations of NADPH was 1 mM. The mixture was pre-warmed at 37° C. for 5 minutes. The negative control samples were prepared by replacing NADPH solutions with 40 μL of ultra-pure H2O. The negative control was used to exclude the misleading factor that resulted from instability of chemical itself. Samples with NADPH were prepared in duplicate. Negative controls were prepared in singlet.
The reaction was started with the addition of 4 μL of 200 μM control compound or test compound solutions. […] Samples were centrifuged at 3, 220 g for 40 minutes. Aliquot of 90 μL of the supernatant was mixed with 90 μL of ultra-pure H2O and then used for LC-MS/MS analysis.
For metabolite standard samples: 1 μL of 400 μM working solution was added to 89 μL master solution following by adding 400 μL of cold acetonitrile with internal standard (IS) (100 nM alprazolam, 200 nM Imipramine, 200 nM labetalol and 2 μM ketoprofen). Then 10 μL of 10 mM NADPH solution or ultra-pure H2O was added to the mixture. Samples were centrifuged at 3,220 g for 40 minutes to precipitate protein. Aliquots of 90 μL supernatant diluted by 90 μL of water was used for LC-MS/MS analysis.

[2] = system: 1-MNA; assay: Plasma 1-MNA in mice after dosing with 11 (PK/PD); assay type: in vivo, Female C57B16/N mice
Text: Doses were freshly prepared on the day of dosing. Vehicle compositions of each dose are listed below. […] Adjust pH with 1 N hydrochloric acid to obtain a clear solution or (b) 0.2% Tween 80/20% PEG-300 in water. Adjust pH with 1 N hydrochloric acid to obtain a clear solution
Then the samples were vortexed for 30 s.

[3] = molecular target: hERG (Homo sapiens, UniProt Q12809); assay: hERG safety evaluation by manual Patch-Clamp system; assay type: cell-based
Chain of hERG (Q12809 whole entry): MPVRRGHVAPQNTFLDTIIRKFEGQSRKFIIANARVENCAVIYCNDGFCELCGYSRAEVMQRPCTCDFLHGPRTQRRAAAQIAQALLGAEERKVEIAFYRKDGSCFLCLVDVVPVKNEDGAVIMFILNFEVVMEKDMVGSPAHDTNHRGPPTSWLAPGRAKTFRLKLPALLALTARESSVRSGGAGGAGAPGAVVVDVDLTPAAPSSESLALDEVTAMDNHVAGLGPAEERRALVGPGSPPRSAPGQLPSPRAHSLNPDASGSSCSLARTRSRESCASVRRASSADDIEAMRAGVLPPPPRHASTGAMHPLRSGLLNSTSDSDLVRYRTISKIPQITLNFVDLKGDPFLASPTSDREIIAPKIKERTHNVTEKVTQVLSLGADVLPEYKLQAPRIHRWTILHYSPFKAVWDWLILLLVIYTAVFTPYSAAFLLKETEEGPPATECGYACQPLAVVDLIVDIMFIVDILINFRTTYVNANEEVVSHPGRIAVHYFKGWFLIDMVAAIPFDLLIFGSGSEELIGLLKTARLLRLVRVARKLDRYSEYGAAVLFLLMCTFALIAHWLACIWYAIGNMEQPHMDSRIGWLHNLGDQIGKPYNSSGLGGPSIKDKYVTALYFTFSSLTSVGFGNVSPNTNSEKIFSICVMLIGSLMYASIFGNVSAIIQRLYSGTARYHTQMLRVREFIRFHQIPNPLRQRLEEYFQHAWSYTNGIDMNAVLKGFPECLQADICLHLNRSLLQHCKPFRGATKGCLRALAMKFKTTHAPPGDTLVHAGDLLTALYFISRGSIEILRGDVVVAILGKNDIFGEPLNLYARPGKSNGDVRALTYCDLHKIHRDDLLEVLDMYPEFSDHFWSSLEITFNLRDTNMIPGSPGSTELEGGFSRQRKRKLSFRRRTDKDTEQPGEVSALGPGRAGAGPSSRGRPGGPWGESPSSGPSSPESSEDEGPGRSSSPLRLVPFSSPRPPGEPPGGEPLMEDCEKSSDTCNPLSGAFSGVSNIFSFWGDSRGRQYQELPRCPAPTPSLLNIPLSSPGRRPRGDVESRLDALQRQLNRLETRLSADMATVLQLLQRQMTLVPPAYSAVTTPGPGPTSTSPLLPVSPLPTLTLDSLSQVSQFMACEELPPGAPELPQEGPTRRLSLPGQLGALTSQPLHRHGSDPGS
Procedure: Cell lines and cell culture: hERG stably expressed HEK 293 cell line (Cat #K1236) was purchased from Invitrogen. The cells are cultured in 85% DMEM, 10% dialyzed FBS, 0.1 mM NEAA, 25 mM HEPES, 100 U/mL Penicillin-Streptomycin, 5 μg/mL Blasticidin and 400 μg/mL Geneticin. Cells are split using TrypLE™ Express about three times a week, and maintained between ˜40% to ˜80% confluence. Before the assay, the cells were onto the coverslips at 5×10^5 cells/per 6 cm cell culture dish and induced with doxycycline at 1 μg/mL for 48 hours.
[…]; 2) Intracellular solution (in mM): 140 KCl, 2 MgCl2, 10 EGTA, 10 HEPES and 5 MgATP (pH adjusted to 7.35 with KOH).
Experimental procedure: 1) Remove the coverslip from the cell culture dish and place it on the microscope stage in bath chamber; 2) Locate a desirable cell using the ×10 objective. Locate the tip of the electrode under the microscope using the ×10 objective by focusing above the plane of the cells. […]
Data analysis: Data that met the above criteria for hERG current quality were further analyzed as the following steps: 1) Percent hERG current inhibition was calculated using the following equation; 2) The dose response curve of test compounds was plotted with percentage of hERG current inhibition against the concentration of test compounds using Graphpad Prism 8.0, and fit to a sigmoid dose-response curve with a variable slope.

[4] = system: Ion Channels, GPCR, Transporter, Kinases, Enzyme and Nuclear Hormone Receptor; assay: Off-target safety panel screening; conditions: at 10 μM
Procedure: An off-target safety panel screening for 11 was conducted. The class of target teste included Ion Channels, GPCR, Transporter, Kinases, Enzyme and Nuclear Hormone Receptor.

[5] = male, mouse, pooled liver microsomes
[6] = 10 mg/kg PO of 11, formulation a

## C[C@@H]1Cc2cc(C(N)=O)cnc2N1 [Compound 11, (2R)-2-methyl-2,3-dihydro-1H-pyrrolo[2,3-b]pyridine-5-carboxamide]
[1]; Mouse liver microsomes
  Predicted hepatic CL: <18.76 mL/min/kg
  Remaining (%) at 60 minutes: 93.24%
[1]; [5]
  CLint scaled at 2 μM: < 23.7 mL/min/kg
  half-life at 2 μM: > 4.26 h
  microsomal CLint at 2 μM: < 5.42 µL/min/mg
[2]; 1 mg/kg IV of 11
  AUClast of 1-MNA: 1289 ng·h/mL
[2]; [6]
  AUClast of 1-MNA: 943 ng·h/mL
  Cmax of 1-MNA: 54.9 ng/mL
  Tmax of 1-MNA: 24.0 h
[2]; 50 mg/kg of 11, formulation a
  AUClast of 1-MNA: 653 ng·h/mL
  Cmax of 1-MNA: 54.8 ng/mL
  Tmax of 1-MNA: 24.0 h
[2]; 50 mg/kg of 11, formulation b
  AUClast of 1-MNA: 667 ng·h/mL
  Cmax of 1-MNA: 70.1 ng/mL
  Tmax of 1-MNA: 8.17 h
[3]; human, HEK293 cells stably expressing hERG, pH 7.35, at 30 μM
  inhibition at 5 min, 30 µM: 15%
[3]; manual Patch-Clamp, hERG stably expressed HEK 293 cell line
  IC50: > 30 µM
[4]
  Off-target activity: did not show significant off-target activity
